From the supplement of paper PMC13380429

Key:
Settings in all cases: 72 h
Caco-2 [1] = experiment: cell viability relative to DMSO; higher = less toxic
Calu-3 [2] = experiment: as above
Vero E6 [3] = experiment: as above
U2OS [4] = experiment: as above
HepG2 [5] = experiment: as above
Caco-2 [6] = experiment: drug sensitivity score (DSS) for viability; higher = more toxic; extreme values may be limits of the assay
Calu-3 [7] = experiment: as above
Vero E6 [8] = experiment: as above
U2OS [9] = experiment: as above
HepG2 [10] = experiment: as above
Calu-3 [11] = experiment: relative viability EC50 (midpoint between 100% and the lowest measured viability); higher = less toxic
Caco-2 [12] = experiment: as above
U2OS [13] = experiment: as above
HepG2 [14] = experiment: as above
Vero E6 [15] = experiment: as above

SMILES | cell viability (Caco-2 [1]; 1 nM) [%] | cell viability (Caco-2 [1]; 10 nM) [%] | cell viability (Caco-2 [1]; 100 nM) [%] | cell viability (Caco-2 [1]; 1000 nM) [%] | cell viability (Caco-2 [1]; 10000 nM) [%] | cell viability (Calu-3 [2]; 1 nM) [%] | cell viability (Calu-3 [2]; 10 nM) [%] | cell viability (Calu-3 [2]; 100 nM) [%] | cell viability (Calu-3 [2]; 1000 nM) [%] | cell viability (Calu-3 [2]; 10000 nM) [%] | cell viability (Vero E6 [3]; 1 nM) [%] | cell viability (Vero E6 [3]; 10 nM) [%] | cell viability (Vero E6 [3]; 100 nM) [%] | cell viability (Vero E6 [3]; 1000 nM) [%] | cell viability (Vero E6 [3]; 10000 nM) [%] | cell viability (U2OS [4]; 1 nM) [%] | cell viability (U2OS [4]; 10 nM) [%] | cell viability (U2OS [4]; 100 nM) [%] | cell viability (U2OS [4]; 1000 nM) [%] | cell viability (U2OS [4]; 10000 nM) [%] | cell viability (HepG2 [5]; 1 nM) [%] | cell viability (HepG2 [5]; 10 nM) [%] | cell viability (HepG2 [5]; 100 nM) [%] | cell viability (HepG2 [5]; 1000 nM) [%] | cell viability (HepG2 [5]; 10000 nM) [%] | drug sensitivity score (Caco-2 [6]) | drug sensitivity score (Calu-3 [7]) | drug sensitivity score (Vero E6 [8]) | drug sensitivity score (U2OS [9]) | drug sensitivity score (HepG2 [10]) | relative viability EC50 (Calu-3 [11]) [µM] | relative viability EC50 (Caco-2 [12]) [µM] | relative viability EC50 (U2OS [13]) [µM] | relative viability EC50 (HepG2 [14]) [µM] | relative viability EC50 (Vero E6 [15]) [µM]
CCn1c(-c2nonc2N)nc2cnc(Oc3cccc(NC(=O)c4ccc(OCCN5CCOCC5)cc4)c3)cc21 | 94.9 | 98 | 94.9 | 97.8 | 67.7 | 97.9 | 123 | 144 | 131 | 125 | 96.5 | 99.3 | 88.9 | 72.2 | 72.1 | 97.5 | 98.6 | 91.4 | 78.5 | 62.1 | 96.6 | 107 | 114 | 80.4 | 52.4 | 1.8 | 0 | 5.9 | 4.4 | 5.1 | > 10 | – | – | – | –
Cc1nnc2ccc(-c3cccc(C(F)(F)F)c3)nn12 | 92.5 | 97.3 | 107 | 97.6 | 87.9 | 99.5 | 111 | 95 | 101 | 91.2 | – | – | – | – | – | 99.1 | 98.8 | 94.3 | 99.4 | 94.5 | 107 | 102 | 107 | 90.4 | 108 | 0.2 | 0 | – | 0 | 0 | > 10 | > 10 | > 10 | > 10 | –
N#CCC(=O)c1ccccc1 | 106 | 105 | 89.2 | 98.2 | 102 | 103 | 108 | 96.3 | 100 | 94.7 | – | – | – | – | – | 100 | 99.9 | 100 | 98.3 | 104 | 94.9 | 103 | 101 | 106 | 96.2 | 0 | 0 | – | 0 | 0 | > 10 | > 10 | > 10 | > 10 | –
NS(=O)(=O)NCc1csc2ccccc12 | 84.1 | 95.7 | 96.2 | 94.3 | 87.3 | 90.7 | 93.4 | 94.8 | 103 | 95.4 | – | – | – | – | – | 102 | 106 | 96.4 | 104 | 99.8 | 109 | 97 | 111 | 98.7 | 112 | 0 | 0 | – | 0 | 0 | > 10 | > 10 | > 10 | > 10 | –
O=C(NOCC(O)CO)c1cc(Br)c(F)c(F)c1Nc1ccc(I)cc1F (stereo unspecified) | 102 | 92.3 | 73.3 | 69.5 | 68.7 | 94.8 | 81.8 | 73.3 | 62.1 | 43.2 | 93.8 | 88.6 | 76.7 | 55.2 | 51.3 | 103 | 94.7 | 92.7 | 97.6 | 67.8 | 99.5 | 97.9 | 46.1 | 25.7 | 21.3 | 9.1 | 11.8 | 11.1 | 1.8 | 20.9 | 0.102 | – | – | 0.0645 | –
CC(=O)N[C@H]1[C@H]([C@H](O)[C@H](O)CO)OC(O)(C(=O)O)C[C@@H]1O (mixture of isomers) [aceneuramic-acid] | 106 | 99 | 85.8 | 99.3 | 93.6 | 113 | 99.6 | 99.2 | 97.1 | 90.4 | 102 | 97.4 | 101 | 93.7 | 98 | – | – | – | – | – | 94.6 | 90.1 | 99.9 | 67.9 | 86.1 | 0 | 0 | 0 | – | 2.5 | > 10 | > 10 | – | – | > 10
CCCCCCCCCCCCCCCCO [1-hexadecanol] | 107 | 97.4 | 87.3 | 96.6 | 95.1 | 94 | 95.5 | 102 | 95.5 | 97.3 | 99.7 | 97.3 | 96 | 95.9 | 102 | 97.8 | 100 | 97 | 97.3 | 92.7 | – | – | – | – | – | 0 | 0 | 0 | 0 | – | > 10 | > 10 | > 10 | – | > 10
Cc1[nH]c2ccc(O)cc2c1CCN [2-methyl-5-hydroxytryptamine] | 104 | 105 | 98.3 | 102 | 102 | 109 | 109 | 102 | 101 | 99.3 | 95 | 96.5 | 98.4 | 96.6 | 94.9 | 101 | 101 | 97.3 | 106 | 101 | – | – | – | – | – | 0 | 0 | 0 | 0 | – | > 10 | > 10 | > 10 | – | > 10
CCn1nc(C2CCN(C(=O)CCO)CC2)nc1-c1cnc(N)c(-c2nnc(C(C)(C)C)o2)n1 [AZD8835] | 94.1 | 93.6 | 91.3 | 86.6 | 64.3 | 102 | 96.3 | 99.1 | 81.4 | 41.8 | 96.9 | 97.9 | 93.7 | 96 | 70 | 102 | 97.5 | 99 | 85.2 | 70.5 | 101 | 101 | 95.1 | 78.7 | 64 | 3.2 | 5.9 | 2 | 2.8 | 4.1 | 1.35 | – | – | – | –
c1ccc2nc(C3=NCCN3)cnc2c1 [BU-239] | 97.1 | 101 | 102 | 102 | 100 | 101 | 106 | 95.4 | 112 | 99.8 | – | – | – | – | – | – | – | – | – | – | 99.2 | 104 | 112 | 104 | 101 | 0 | 0 | – | – | 0 | > 10 | > 10 | – | > 10 | –
CCCCCCNC(=O)n1cc(F)c(=O)[nH]c1=O [Carmofur] | 106 | 92 | 94.1 | 91.7 | 74.1 | 89.8 | 102 | 100 | 101 | 93.8 | 104 | 99.4 | 102 | 102 | 67.1 | 103 | 96.5 | 102 | 94.8 | 55.9 | 108 | 104 | 102 | 85.5 | 63.6 | 1.5 | 0 | 1.4 | 3.1 | 3.7 | > 10 | – | – | – | –
C[C@@H]1C[C@H]2[C@@H]3CCC4=CC(=O)C=C[C@]4(C)[C@@]3(F)[C@@H](O)C[C@]2(C)[C@@]1(O)C(=O)COP(=O)(O)O [DEXAMETHASONE SODIUM PHOSPHATE] | 95.9 | 88 | 99.7 | 96.2 | 97.5 | 106 | 107 | 89.9 | 105 | 90 | – | – | – | – | – | 99.8 | 98.8 | 97.7 | 95.8 | 95.7 | 111 | 108 | 100 | 97.8 | 93.6 | 0 | 0 | – | 0 | 0 | > 10 | > 10 | > 10 | > 10 | –
C[C@H](N)C(=O)O [L-alanine] | 102 | 96.6 | 99.4 | 106 | 105 | 102 | 94.3 | 99.6 | 106 | 84.2 | 104 | 103 | 106 | 98.9 | 104 | 94.5 | 102 | 104 | 105 | 96.3 | – | – | – | – | – | 0 | 0.2 | 0 | 0 | – | > 10 | > 10 | > 10 | – | > 10
CN(C)CCOc1cc(-c2cn[nH]c2)ccc1NC(=O)C1COc2ccccc2O1 (stereo unspecified) [SR-3677] | 100 | 95.6 | 105 | 105 | 94.9 | 102 | 93.4 | 99.4 | 148 | 134 | 96.5 | 95.9 | 95.7 | 81.4 | 68.8 | 99.8 | 101 | 95.6 | 98.6 | 79.6 | 99.3 | 108 | 101 | 86 | 88.4 | 0 | 0 | 3.3 | 0.8 | 1.1 | > 10 | > 10 | > 10 | > 10 | –
COc1cc2ncnc(Nc3ccc(O)c(Br)c3)c2cc1OC [WHI-P154] | 95.8 | 96.6 | 89.8 | 83.6 | 68.8 | 106 | 103 | 94.3 | 72.6 | 28.6 | 101 | 98.4 | 82.8 | 68 | 35.6 | 103 | 101 | 99.5 | 93.1 | 86.3 | 108 | 102 | 101 | 89.7 | 70 | 3.4 | 7.2 | 8.2 | 0.4 | 2.7 | 1.29 | – | > 10 | – | 0.642
